Data: US20030187037A1, “Acetamide derivatives and the use thereof as inhibitors of coagulation factors xa and viia” (priority 2000, published 2003)
pIC50: −log10 of the molar value.

How the values were obtained:
factor Xa, human = factor Xa, human (Homo sapiens, UniProt P00742); experiment: Inhibition of factor Xa (IC50, headed 'Affinity to Receptors'); type: biochemical
Description: The inhibition of factor Xa by the compounds according to the invention and the measurement of the anticoagulant and antithrombotic activity can be determined by conventional in-vitro or in-vivo methods. A suitable method is described, for example, by J. Hauptmann et al. in Thrombosis and Haemostasis 1990, 63, 220-223.
The inhibition of factor Xa can be measured, for example, by the method of T. Hara et al. in Thromb. Haemostas. 1994, 71, 314-319.

TF/VIIa = TF/VIIa (Homo sapiens, UniProt P08709); experiment: Inhibition of TF/VIIa (IC50, headed 'Affinity to Receptors'); type: biochemical
Description: The inhibition of factor VIIa by the compounds according to the invention and the measurement of the anticoagulant and antithrombotic activity can be determined by conventional in-vitro or in-vivo methods. A conventional method for the measurement of the inhibition of factor VIIa is described, for example, by H. F. Ronning et al. in Thrombosis Research 1996, 84, 73-81.

Sequence of TF/VIIa (P08709 213-466 limits assumed): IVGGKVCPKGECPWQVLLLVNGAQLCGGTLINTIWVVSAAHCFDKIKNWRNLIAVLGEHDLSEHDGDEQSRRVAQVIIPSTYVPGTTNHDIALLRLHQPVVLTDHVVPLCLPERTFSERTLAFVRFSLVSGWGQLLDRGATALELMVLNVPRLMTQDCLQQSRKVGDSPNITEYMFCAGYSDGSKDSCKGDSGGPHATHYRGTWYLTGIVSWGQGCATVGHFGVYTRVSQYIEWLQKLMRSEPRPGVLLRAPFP
Sequence of TF/VIIa (P08709 61-212 partner limits assumed): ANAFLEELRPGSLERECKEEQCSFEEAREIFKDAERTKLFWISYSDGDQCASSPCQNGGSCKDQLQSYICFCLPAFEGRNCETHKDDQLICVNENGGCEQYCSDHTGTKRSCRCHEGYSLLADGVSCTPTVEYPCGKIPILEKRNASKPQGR
Sequence of TF/VIIa (P13726 33-295 partner): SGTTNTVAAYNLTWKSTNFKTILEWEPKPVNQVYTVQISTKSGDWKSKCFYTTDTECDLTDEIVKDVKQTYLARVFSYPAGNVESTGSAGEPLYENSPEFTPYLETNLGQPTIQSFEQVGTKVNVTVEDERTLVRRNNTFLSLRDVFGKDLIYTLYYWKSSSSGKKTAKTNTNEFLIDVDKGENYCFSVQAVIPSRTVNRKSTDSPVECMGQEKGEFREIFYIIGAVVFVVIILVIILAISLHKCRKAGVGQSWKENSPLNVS
Sequence of factor Xa, human (P00742 235-488 limits assumed): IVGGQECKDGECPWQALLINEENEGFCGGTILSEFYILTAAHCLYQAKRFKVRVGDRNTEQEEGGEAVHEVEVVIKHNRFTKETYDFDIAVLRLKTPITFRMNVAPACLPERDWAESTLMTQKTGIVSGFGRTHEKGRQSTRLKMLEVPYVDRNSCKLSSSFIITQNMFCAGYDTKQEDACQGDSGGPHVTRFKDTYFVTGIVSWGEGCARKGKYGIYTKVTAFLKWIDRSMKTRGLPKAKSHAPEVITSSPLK
Sequence of factor Xa, human (P00742 41-179 partner limits assumed): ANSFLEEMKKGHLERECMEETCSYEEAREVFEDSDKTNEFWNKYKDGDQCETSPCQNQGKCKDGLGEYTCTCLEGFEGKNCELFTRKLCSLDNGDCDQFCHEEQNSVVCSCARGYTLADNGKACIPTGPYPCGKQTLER

CCCN(Cc1cccc(C(=N)N)c1)C(=O)Cc1ccc(-c2ccccc2S(N)(=O)=O)cc1 [Example 3.3, N-3-amidinobenzyl-N-propyl-2-(2′-sulfamoylbiphenyl-4-yl)acetamide]
pIC50 (factor Xa, human): 5.70
pIC50 (TF/VIIa): 6.05

N=C(N)c1cccc(CN(C(=O)Cc2ccc(-c3ccccc3S(N)(=O)=O)cc2)c2ccccc2)c1 [N-(3-amidinobenzyl)-N-phenyl-2-(2′-sulfamoylbiphenyl-4-yl)acetamide]
pIC50 (factor Xa, human): 5.70
pIC50 (TF/VIIa): 5.82

CS(=O)(=O)c1ccccc1-c1ccc(CC(=O)N(Cc2cccc(C(=N)N)c2)c2ccccc2)cc1 [N-(3-amidinobenzyl)-N-phenyl-2-(2′-methylsulfonylbiphenyl-4-yl)acetamide]
pIC50 (factor Xa, human): 6.26
pIC50 (TF/VIIa): 6.19

CCCN(Cc1cccc(C(=N)N)c1)C(=O)Cc1ccc(-c2ccccc2S(C)(=O)=O)cc1 [Example 4.3, N-(3-amidinobenzyl)-N-propyl-2-(2′-methylsulfonylbiphenyl-4-yl)acetamide]
pIC50 (factor Xa, human): 6.00
pIC50 (TF/VIIa): 6.15
